{"source": "patent US11873287B2", "about": "“Piperidine-2,6-dione derivatives and ulcerative colitis treating” (TIANJIN HEMAY PHARMACEUTICAL SCI-TECH CO., LTD, priority 2016, dated 2024)", "key": {"[1]": {"tested_on": "DSS-Induced inflammatory Bowel Disease Models in Mice", "experiment": "DSS-induced inflammatory bowel disease model in mice (Biological Example 4, 1.3% DSS)", "type": "in vivo, C57BL/6 mice", "details": "30 mg/Kg i.g. Q.D; for Average Length of Colon (Mean ± SD) / Inhibitory Rate of Colonic Reduction: 1.3% DSS days 0-5", "protocol": "(§1) 40 healthy female C57BL/6 mice having weight of 16-19 g were randomly divided into 4 groups in accordance with weight. There were 10 mice in each group (see Table 6 below). The first day of the experiment was recorded as Day 0. The administration regimen and induction regimen were detailed in Table 6. The change in weight of experimental animals was recorded every day. […] Samples of animal colonic tissues were obtained to measure the length. One-way ANOVA analysis of mice weights was performed by SPSS22. Statistical analyses between groups were performed. Mann-Whitney U non-parametric test was performed on the length of colon.\nThe experimental method used in the present biological example is identical to those in Biological Example 3.\n(§2) Calculation Formula of Inhibitory Rate of Colonic Reduction: (Length of Colon in Administration Group−Length of Colon in Model Group)/(Length of Colon in Blank Group−Length of Colon in Model Group)"}, "[2]": {"tested_on": "ICR mice", "experiment": "Acute toxicity experiment of single oral administration in mice", "type": "in vivo", "details": "1000 mg/Kg single oral dose", "protocol": "The mice were fasted one day before the experiment. On the day of the experiment, 6 mice (ICR mice, body weight of 19-21 g, three females and three males) were selected in each experiment group. First of all, one female and one male were selected to orally give 1000 mg/Kg, and observed for 5-10 minutes. If there were no obvious side effects, the remaining 4 animals were orally given the same dose, and observed for 10-15 minutes. If no animal died, the animals were placed in a box to balancedly feed for 7 days. The state was observed and the body weight was recorded daily.\nObservation Indexes within 0-15 Minutes After Administration\nActivity: restlessness, hyperactivity\nNervous system response: tremor, spasm, convulsion, ataxia, posture abnormality, etc.\nAutonomic nerve: exophthalmos, salivation, tears, urination (hematuria), diarrhea, piloerection, breathing, etc.\nObservation Indexes Over 7 Days\nState of Animal: lethargy, hyperactivity, excitement, hair loss, diarrhea, abnormal behavior, death, etc."}, "[3]": {"tested_on": "DSS-Induced inflammatory Bowel Disease Models in Mice", "experiment": "DSS-induced inflammatory bowel disease model in mice (Biological Example 3, 1.0-1.5% DSS)", "type": "in vivo, C57BL/6 mice", "details": "30 mg/Kg i.g. Q.D", "protocol": "as §1, §2"}, "[4]": {"details": "DSS 1.0% days 0-4, 1.5% days 5-9"}}, "data": [{"smiles": "CCOCCN1C(=O)CCC(N2C(=O)c3cccc(N)c3C2=O)C1=O", "note": "(centres unmarked) [Example 19, 4-amino-2-(1-(2-ethoxyethyl)-2,6-dioxopiperidin-3-yl)isoindolin-1,3-dione]", "values": [{"measurement": "Average Length of Colon (Mean ± SD)", "setting": "[1]", "value": "6.9 ± 0.4", "unit": "cm"}, {"measurement": "Inhibitory Rate of Colonic Reduction", "setting": "[1]", "value": 66.7, "unit": "%"}, {"measurement": "Weights of Experimental Mice (Mean ± SD)", "setting": "[1]; Day 0", "value": "19.6 ± 0.7", "unit": "g"}, {"measurement": "Weights of Experimental Mice (Mean ± SD)", "setting": "[1]; Day 1", "value": "19.6 ± 0.8", "unit": "g"}, {"measurement": "Weights of Experimental Mice (Mean ± SD)", "setting": "[1]; Day 2", "value": "19.7 ± 0.7", "unit": "g"}, {"measurement": "Weights of Experimental Mice (Mean ± SD)", "setting": "[1]; Day 3", "value": "19.9 ± 0.7", "unit": "g"}, {"measurement": "Weights of Experimental Mice (Mean ± SD)", "setting": "[1]; Day 4", "value": "20.0 ± 0.7", "unit": "g"}, {"measurement": "Weights of Experimental Mice (Mean ± SD)", "setting": "[1]; Day 5", "value": "19.7 ± 0.5", "unit": "g"}, {"measurement": "Weights of Experimental Mice (Mean ± SD)", "setting": "[1]; Day 6", "value": "19.2 ± 0.7", "unit": "g"}, {"measurement": "Weights of Experimental Mice (Mean ± SD)", "setting": "[1]; Day 7", "value": "18.9 ± 0.8", "unit": "g"}, {"measurement": "Weights of Experimental Mice (Mean ± SD)", "setting": "[1]; Day 8", "value": "19.0 ± 1.0", "unit": "g"}, {"measurement": "Weights of Experimental Mice (Mean ± SD)", "setting": "[1]; Day 9", "value": "19.4 ± 0.8", "unit": "g"}, {"measurement": "Daily Body Weight of Tested Female Mice (Mean ± SD)", "setting": "[2]; Day 1", "value": "18.0 ± 0.6", "unit": "g"}, {"measurement": "Daily Body Weight of Tested Male Mice (Mean ± SD)", "setting": "[2]; Day 1", "value": "18.9 ± 1.2", "unit": "g"}, {"measurement": "Daily Body Weight of Tested Female Mice (Mean ± SD)", "setting": "[2]; Day 2", "value": "20.7 ± 1.1", "unit": "g"}, {"measurement": "Daily Body Weight of Tested Male Mice (Mean ± SD)", "setting": "[2]; Day 2", "value": "20.7 ± 1.1", "unit": "g"}, {"measurement": "Daily Body Weight of Tested Female Mice (Mean ± SD)", "setting": "[2]; Day 3", "value": "21.3 ± 0.6", "unit": "g"}, {"measurement": "Daily Body Weight of Tested Male Mice (Mean ± SD)", "setting": "[2]; Day 3", "value": "21.3 ± 0.6", "unit": "g"}, {"measurement": "Daily Body Weight of Tested Female Mice (Mean ± SD)", "setting": "[2]; Day 4", "value": "22.8 ± 0.3", "unit": "g"}, {"measurement": "Daily Body Weight of Tested Male Mice (Mean ± SD)", "setting": "[2]; Day 4", "value": "25.0 ± 2.0", "unit": "g"}, {"measurement": "Daily Body Weight of Tested Female Mice (Mean ± SD)", "setting": "[2]; Day 5", "value": "23.2 ± 0.7", "unit": "g"}, {"measurement": "Daily Body Weight of Tested Male Mice (Mean ± SD)", "setting": "[2]; Day 5", "value": "24.8 ± 1.9", "unit": "g"}, {"measurement": "Daily Body Weight of Tested Female Mice (Mean ± SD)", "setting": "[2]; Day 6", "value": "23.3 ± 1.2", "unit": "g"}, {"measurement": "Daily Body Weight of Tested Male Mice (Mean ± SD)", "setting": "[2]; Day 6", "value": "26.5 ± 1.9", "unit": "g"}, {"measurement": "Daily Body Weight of Tested Female Mice (Mean ± SD)", "setting": "[2]; Day 7", "value": "23.0 ± 1.7", "unit": "g"}, {"measurement": "Daily Body Weight of Tested Male Mice (Mean ± SD)", "setting": "[2]; Day 7", "value": "27.7 ± 2.2", "unit": "g"}, {"measurement": "Summary of toxic response of tested animals in 7 Days", "setting": "[2]; Female", "value": "Severe motor dysfunction in three animals was observed 30"}, {"measurement": "Summary of toxic response of tested animals in 7 Days", "setting": "[2]; Male", "value": "Severe motor dysfunction in two animals was observed 30"}]}, {"smiles": "COCCCN1C(=O)CCC(N2C(=O)c3cccc(NC(C)=O)c3C2=O)C1=O", "note": "(centres unmarked) [Example 16, 4-acetylamino-2-(1-(3-methoxypropyl)-2,6-dioxopiperidin-3-yl)isoindolin-1,3-dione]", "values": [{"measurement": "Average Length of Colon (Mean ± SD)", "setting": "[1]", "value": "7.0 ± 0.4", "unit": "cm"}, {"measurement": "Inhibitory Rate of Colonic Reduction", "setting": "[1]", "value": 73.3, "unit": "%"}, {"measurement": "Weights of Experimental Mice (Mean ± SD)", "setting": "[1]; Day 0", "value": "19.8 ± 0.6", "unit": "g"}, {"measurement": "Weights of Experimental Mice (Mean ± SD)", "setting": "[1]; Day 1", "value": "19.9 ± 0.4", "unit": "g"}, {"measurement": "Weights of Experimental Mice (Mean ± SD)", "setting": "[1]; Day 2", "value": "19.7 ± 0.4", "unit": "g"}, {"measurement": "Weights of Experimental Mice (Mean ± SD)", "setting": "[1]; Day 3", "value": "19.9 ± 0.6", "unit": "g"}, {"measurement": "Weights of Experimental Mice (Mean ± SD)", "setting": "[1]; Day 4", "value": "19.7 ± 0.5", "unit": "g"}, {"measurement": "Weights of Experimental Mice (Mean ± SD)", "setting": "[1]; Day 5", "value": "19.6 ± 0.5", "unit": "g"}, {"measurement": "Weights of Experimental Mice (Mean ± SD)", "setting": "[1]; Day 6", "value": "19.3 ± 0.7", "unit": "g"}, {"measurement": "Weights of Experimental Mice (Mean ± SD)", "setting": "[1]; Day 7", "value": "19.0 ± 1.0", "unit": "g"}, {"measurement": "Weights of Experimental Mice (Mean ± SD)", "setting": "[1]; Day 8", "value": "18.9 ± 1.2", "unit": "g"}, {"measurement": "Weights of Experimental Mice (Mean ± SD)", "setting": "[1]; Day 9", "value": "18.9 ± 1.1", "unit": "g"}]}, {"smiles": "COCCN1C(=O)CCC(N2C(=O)c3ccc(N)cc3C2=O)C1=O", "note": "(centres unmarked) [Example 7, 5-amino-2-(1-(2-methoxyethyl)-2,6-dioxopiperidin-3-yl)isoindolin-1,3-dione]", "values": [{"measurement": "body weights compared with model control group", "setting": "[3]", "value": "higher than that of the model control group"}, {"measurement": "Average Length of Colon (Mean ± SD)", "setting": "[3]; [4]", "value": "6.4 ± 0.4", "unit": "cm"}, {"measurement": "Inhibitory Rate of Colonic Reduction", "setting": "[3]; [4]", "value": 63.6, "unit": "%"}, {"measurement": "Body Weights of Experimental Mice (Mean ± SD)", "setting": "[3]; Day 0", "value": "17.4 ± 0.8", "unit": "g"}, {"measurement": "Body Weights of Experimental Mice (Mean ± SD)", "setting": "[3]; Day 1", "value": "17.5 ± 0.7", "unit": "g"}, {"measurement": "Body Weights of Experimental Mice (Mean ± SD)", "setting": "[3]; Day 2", "value": "18.2 ± 0.8", "unit": "g"}, {"measurement": "Body Weights of Experimental Mice (Mean ± SD)", "setting": "[3]; Day 3", "value": "17.8 ± 0.8", "unit": "g"}, {"measurement": "Body Weights of Experimental Mice (Mean ± SD)", "setting": "[3]; Day 4", "value": "17.7 ± 0.7", "unit": "g"}, {"measurement": "Body Weights of Experimental Mice (Mean ± SD)", "setting": "[3]; Day 5", "value": "17.9 ± 0.8", "unit": "g"}, {"measurement": "Body Weights of Experimental Mice (Mean ± SD)", "setting": "[3]; Day 6", "value": "17.8 ± 0.8", "unit": "g"}, {"measurement": "Body Weights of Experimental Mice (Mean ± SD)", "setting": "[3]; Day 7", "value": "17.9 ± 0.8", "unit": "g"}, {"measurement": "Body Weights of Experimental Mice (Mean ± SD)", "setting": "[3]; Day 8", "value": "17.4 ± 0.7", "unit": "g"}, {"measurement": "Body Weights of Experimental Mice (Mean ± SD)", "setting": "[3]; Day 9", "value": "17.4 ± 0.7", "unit": "g"}, {"measurement": "Body Weights of Experimental Mice (Mean ± SD)", "setting": "[3]; Day 10", "value": "16.8 ± 0.9", "unit": "g"}, {"measurement": "Body Weights of Experimental Mice (Mean ± SD)", "setting": "[3]; Day 11", "value": "16.8 ± 1.0", "unit": "g"}, {"measurement": "Body Weights of Experimental Mice (Mean ± SD)", "setting": "[3]; Day 12", "value": "17.3 ± 1.0", "unit": "g"}]}]}
